Assays:
[1] = tested on: pentagastrin-stimulated acid secretion of the perfused rat stomach; test: Secretion-inhibiting action on the perfused rat stomach (pentagastrin-stimulated acid secretion, intraduodenal administration in vivo); conditions: iv, dose 2 μmol/kg i.d., anesthetized female CD rat, pentagastrin 1 μg/kg i.v. infusion
From the text: Testing of the Secretion-Inhibiting Action on the Perfused Rat Stomach
In Table A which follows, the influence of the compounds of the formula 1 according to the invention on the pentagastrin-stimulated acid secretion of the perfused rat stomach after intraduodenal administration in vivo is shown.
The abdomen of anesthetized rats (CD rat, female, 200-250 g; 1.5 g/kg i.m. urethane) was opened after tracheotomy by a median upper abdominal incision and a PVC catheter was fixed transorally in the esophagus and another via the pylorus such that the ends of the tubes just projected into the gastric lumen. The catheter leading from the pylorus led outward into the right abdominal wall through a side opening.
After thorough rinsing (about 50-100 ml), warm (37° C.) physiological NaCl solution was continuously passed through the stomach (0.5 ml/min, pH 6.8-6.9; Braun-Unita I). The pH (pH meter 632, glass electrode EA 147; φ=5 mm, Metrohm) and, by titration with a freshly prepared 0.01N NaOH solution to pH 7 (Dosimat 665 Metrohm), the secreted HCl were determined in the effluent in each case collected at an interval of 15 minutes.
The gastric secretion was stimulated by continuous infusion of […] (=1.65 ml/h) of i.v. pentagastrin (left femoral vein) about 30 min after the end of the operation (i.e. after determination of 2 preliminary fractions). The substances to be tested were administered intraduodenally in a 2.5 ml/kg liquid volume 60 min after the start of the continuous pentagastrin infusion. The body temperature of the animals was kept at a constant 37.8-38° C. by infrared irradiation and heat pads (automatic, stepless control by means of a rectal temperature sensor).

Q: With `COCCO[C@H]1c2ccc3c(nc(C4CC4)n3C)c2O[C@H](c2ccccc2)[C@H]1O` [Example 22, (6S,7S,8R)-2-Cyclopropyl-7-hydroxy-6-(2-methoxy-ethoxy)-3-methyl-8-phenyl-3,6,7,8-tetrahydro-chromeno[7,8-d]imidazole] as the compound, how does the melting point read?
A: 133 °C

Q: For `Cc1nc2c3c(ccc2[nH]1)[C@@H](O)[C@H](O)[C@@H](c1ccccc1)O3` [Example 10, (6R,7S,8R)-6,7-Dihydroxy-2-methyl-8-phenyl-3,6,7,8-tetrahydro-chromeno[7,8-d]imidazole], which melting point is on record?
A: 163 °C

Q: Which melting point does the source give for `COCCO[C@@H]1c2ccc3c(nc(C4CC4)n3C)c2O[C@H](c2ccccc2)[C@H]1O` [Example 21, (6R,7S,8R)-2-Cyclopropyl-7-hydroxy-6-(2-methoxy-ethoxy)-3-methyl-8-phenyl-3,6,7,8-tetrahydro-chromeno[7,8-d]imidazole] here?
A: 157 °C

Q: What does the source list for `COCCO[C@H]1c2ccc3c(nc(C)n3C3CC3)c2O[C@H](c2ccccc2)[C@H]1O` [Example 19, (6S,7S,8R)-3-Cyclopropyl-7-hydroxy-6-(2-methoxy-ethoxy)-2-methyl-8-phenyl-3,6,7,8-tetrahydro-chromeno[7,8-d]imidazole]?
A: melting point: 218 °C; inhibition in vivo at 2 µmol/kg [1]: > 50%

Q: With `COCCO[C@@H]1c2ccc3c(nc(C)n3C)c2O[C@H](c2ccccc2)[C@H]1O` [Example 1, (6R,7S,8R)-7-Hydroxy-6-(2-methoxy-ethoxy)-2,3-dimethyl-8-phenyl-3,6,7,8-tetrahydro-chromeno[7,8-d]imidazole] as the compound, how does the inhibition in vivo at 2 µmol/kg [1] read?
A: > 50%

Q: For `Cc1nc2c3c(ccc2n1C)[C@@H](O)[C@H](O)[C@@H](c1ccccc1)O3` [Example 3, (6R,7S,8R)-6,7-Dihydroxy-2,3-dimethyl-8-phenyl-3,6,7,8-tetrahydro-chromeno[7,8-d]imidazole], which melting point is on record?
A: 262.5 °C

Q: And the inhibition in vivo at 2 µmol/kg [1]?
A: < 50%

Q: What does the source list for `CC=Cn1c(C)nc2c3c(ccc21)[C@H]1OCCO[C@@H]1[C@@H](c1ccccc1)O3` [Example 15, (5S,6R,10R)-16-Methyl-6-phenyl-17-propenyl-2,3,5,6,10,17-hexahydro-1,4,7-trioxa-15,17-diaza-cyclopenta[a]phenanthrene]?
A: melting point: 213 °C; inhibition in vivo at 2 µmol/kg [1]: > 50%

Q: Which inhibition in vivo at 2 µmol/kg [1] does the source give for `Cc1nc2c3c(ccc2n1C1CC1)[C@@H](O)[C@H](O)[C@@H](c1ccccc1)O3` [Example 17, (6R,7S,8R)-3-Cyclopropyl-6,7-dihydroxy-2-methyl-8-phenyl-3,6,7,8-tetrahydro-chromeno[7,8-d]imidazole] here?
A: < 50%

Q: For `COCCO[C@@H]1c2ccc3c(nc(C)n3C)c2O[C@H](c2ccccc2)[C@H]1OC(=O)COC` [Example 7, (6R,7S,8R)-7-(2-Methoxy-acetoxy)-6-(2-methoxy-ethoxy)-2,3-dimethyl-8-phenyl-3,6,7,8-tetrahydro-chromeno[7,8-d]imidazole], which melting point is on record?
A: 200 °C

Q: What about the inhibition in vivo at 2 µmol/kg [1] of the same compound?
A: > 50%

Q: Which melting point does the source give for `COCCO[C@@H]1c2ccc3[nH]c(C)nc3c2O[C@H](c2ccccc2)[C@H]1O` [Example 13, (6R,7S,8R)-7-Hydroxy-6-(2-methoxy-ethoxy)-2-methyl-8-phenyl-3,6,7,8-tetrahydro-chromeno[7,8-d]imidazole] here?
A: 117 °C

Q: What does the source list for `Cc1nc2c3c(ccc2n1C)[C@@H](OCC(F)F)[C@H](O)[C@@H](c1ccccc1)O3` [Example 9, (6R,7S,8R)-7-Hydroxy-6-(2,2-difluoro-ethoxy)-2,3-dimethyl-8-phenyl-3,6,7,8-tetrahydro-chromeno[7,8-d]imidazole]?
A: melting point: 249 °C; inhibition in vivo at 2 µmol/kg [1]: > 50%

Q: For `C=CCn1c(C)nc2c3c(ccc21)[C@@H](OCCF)[C@H](O)[C@@H](c1ccccc1)O3` [Example 14, (6R,7S,8R)-3-Allyl-7-hydroxy-6-(2-fluoro-ethoxy)-2-methyl-8-phenyl-3,6,7,8-tetrahydro-chromeno[7,8-d]imidazole], which melting point is on record?
A: 117 °C

Q: With `CC=Cn1c(C)nc2c3c(ccc21)[C@@H](OCCOC)[C@H](O)[C@@H](c1ccccc1)O3` [Example 12, (6R,7S,8R)-7-Hydroxy-6-(2-methoxy-ethoxy)-2-methyl-8-phenyl-3-propenyl-3,6,7,8-tetrahydro-chromeno[7,8-d]imidazole] as the compound, how does the melting point read?
A: 61 °C

Q: For `COCCO[C@@H]1c2ccc3c(nc(C)n3C)c2O[C@H](c2ccccc2)[C@H]1OC(=O)CN(C)C` [Example 8, (6R,7S,8R)-7-(2-Dimethylamino-acetoxy)-6-(2-methoxy-ethoxy)-2,3-dimethyl-8-phenyl-3,6,7,8-tetrahydro-chromeno[7,8-d]imidazole], which melting point is on record?
A: 175 °C

Q: And the inhibition in vivo at 2 µmol/kg [1]?
A: > 50%

Q: For `COCCO[C@@H]1c2ccc3c(nc(C)n3C3CC3)c2O[C@H](c2ccccc2)[C@H]1O` [Example 18, (6R,7S,8R)-3-Cyclopropyl-7-hydroxy-6-(2-methoxy-ethoxy)-2-methyl-8-phenyl-3,6,7,8-tetrahydro-chromeno[7,8-d]imidazole], which melting point is on record?
A: 183 °C

Q: And the inhibition in vivo at 2 µmol/kg [1]?
A: < 50%

Q: What does the source list for `COCCO[C@H]1c2ccc3c(nc(C)n3C)c2O[C@H](c2ccccc2)[C@H]1O` [Example 2, (6S,7S,8R)-7-Hydroxy-6-(2-methoxy-ethoxy)-2,3-dimethyl-8-phenyl-3,6,7,8-tetrahydro-chromeno[7,8-d]imidazole]?
A: melting point: 163 °C; inhibition in vivo at 2 µmol/kg [1]: < 50%

Q: Which results are given for `CCO[C@@H]1c2ccc3c(nc(C)n3C)c2O[C@H](c2ccccc2)[C@H]1O` [Example 4, (6R,7S,8R)-6-Ethoxy-7-hydroxy-2,3-dimethyl-8-phenyl-3,6,7,8-tetrahydro-chromeno[7,8-d]imidazole]?
A: melting point: 222 °C; inhibition in vivo at 2 µmol/kg [1]: > 50%

Q: For `C=CCn1c(C)nc2c3c(ccc21)[C@@H](OCCOC)[C@H](O)[C@@H](c1ccccc1)O3` [Example 11, (6R,7S,8R)-3Allyl-7-hydroxy-6-(2-methoxy-ethoxy)-2-methyl-8-phenyl-3,6,7,8-tetrahydro-chromeno[7,8-d]imidazole], which melting point is on record?
A: 79 °C

Q: What about the inhibition in vivo at 2 µmol/kg [1] of the same compound?
A: < 50%

Q: For `Cc1nc2c3c(ccc2n1C)[C@@H](OCCF)[C@H](O)[C@@H](c1ccccc1)O3` [Example 5, (6R,7S,8R)-6-(2-Fluoro-ethoxy)-7-hydroxy-2,3-dimethyl-8-phenyl-3,6,7,8-tetrahydro-chromeno[7,8-d]imidazole], which melting point is on record?
A: 226 °C

Q: What about the inhibition in vivo at 2 µmol/kg [1] of the same compound?
A: > 50%

Q: With `Cc1nc2c3c(ccc2n1C)[C@H]1OCCO[C@@H]1[C@@H](c1ccccc1)O3` [Example 6, (5S,6R,10R)-16,17-Dimethyl-6-phenyl-2,3,5,6,10,17-hexahydro-1,4,7-trioxa-15,17-diaza-cyclopenta[a]phenanthrene] as the compound, how does the melting point read?
A: 307 °C

Q: What about the inhibition in vivo at 2 µmol/kg [1] of the same compound?
A: > 50%

Q: For `Cc1nc2c3c(ccc2[nH]1)[C@H]1OCCO[C@@H]1[C@@H](c1ccccc1)O3` [Example 16, (5S,6R,10R)-16-Methyl-6-phenyl-2,3,5,6,10,17-hexahydro-1,4,7-trioxa-15,17-diaza-cyclopenta[a]phenanthrene], which melting point is on record?
A: 260 °C

Q: What about the inhibition in vivo at 2 µmol/kg [1] of the same compound?
A: > 50%
